Values belong to the molecule of their own block, whether it stands above or below them.
Columns and labels:
[1] = Excerpt: An important property of the deuterated component (sarcosine) of the diagnostic drug of the invention is sufficient resistance to metabolic exchange of deuterium for protium in vivo. This exchange lowers the concentration of the deuterium label, while simultaneously increasing the background signal of heavy water (DOH), which is evenly distributed throughout the body due to rapid diffusion. This process leads to a decrease in the contrast of the image, and also prevents quantitive evaluation of deuterated component concentration by comparison with the intensity of natural DOH signal.
[2] = high doses, prior art; cited from earlier work
[3] = Solubility in water for injection; type: physicochemical; conditions: limits the dose to 10 mg in 1.0 ml
4T1 breast carcinoma = assay: Deuterium tomography (2H MRI) of mice with 4T1 breast carcinoma after injection of the deuterated compound; conditions: 10 mg intraperitoneally in 1.0 ml water, 20 g mouse
Protocol: The deuterium tomogram was recorded using FLASH (Fast low angle shot) pulse sequence. The excitation frequency was determined from the ^2H NMR spectrum and was on the instrument used: sfo1≈46.17452 MHz, rectangular excitation pulse 2560 Hz wide and 11.2 dB power, deflection angle FA=30°, repetition time TR=11.8 ms, echo time TE=4.07 ms, scan region10 cm×10 cm, scan matrix 50×50, slice thickness 3 cm, bandwidth 12500 Hz, total scan time 9 minutes 34 seconds (1024 accumulations).
In this example, experiments were performed on Balb/c mice grafted with 4T1 breast carcinoma (injection of 5×10^5 cells/60 μI under the left forepaw 12 days before the experiment). […] In 10 minutes after the injection, the animal was immobilized with isoflurane and placed on a heated bed in a tomograph.
An animal weighing 20 g was injected intraperitoneally with a solution:

[4] = freely diffusing deuterated compound
Excerpt: In this case, the pharmacokinetics in a non-obvious way depends on a dose used (in particular, an excess of the renal reabsorption capacity for a particular compound can lead to its accelerated excretion). At that, the dose is limited by the toxicity and solubility of this compound.

[5] = up to the replacement of 10-30% of water in the body; cited from earlier work

Structure (SMILES): [2H]C([2H])(N)C(=O)O [glycine-2,2-d2]
- loss of deuterium in vivo (exchange of deuterium for protium) [1]: lose deuterium in vivovery quickly

Structure (SMILES): CNCC(=O)O [sarcosine]
- LD50 [2]: > 5000 mg/kg

- loss of deuterium in vivo (exchange of deuterium for protium) [1]: lose deuterium in vivovery quickly
Structure (SMILES): [2H]C([2H])([2H])[C@H](N)C(=O)O [L-alanine-3,3,3-d3]

- solubility [3]: low solubility
- accumulation in tumor tissue (4T1 breast carcinoma): do not accumulate in tumor tissue
- accumulation selectivity in various organs (4T1 breast carcinoma): do not show accumulation selectivity
Structure (SMILES): [2H]c1c([2H])c([2H])c(C([2H])([2H])[C@H](N)C(=O)O)c([2H])c1[2H] [L-phenylalanine-β, β, 2,3,4,5,6-d7]

Structure (SMILES): [2H]O[2H] [D2O]
- selective accumulation in various organs and tissues of a subject [4]: do not show selective accumulation

Structure (SMILES): [2H]O [DOH]
- toxicity [5]: non-toxic in very high doses

Source: patent publication US12383523B2, “Magnetic resonance imaging drug containing deuterated sarcosine, and diagnostic method using said drug” (LIMITED LIABILITY COMPANY “SOLVEX” (“SOLVEX” LLC), priority 2018, dated 2025)
